Reference: article PMC10180076, “Novel Biologically Active N-Substituted Benzimidazole Derived Schiff Bases: Design, Synthesis, and Biological Evaluation” (Molecules, 2023)
Read-outs that look alike come from different tables or passages of the source.

Legend:
[1] = system: DND-41, acute lymphoblastic leukemia; experiment: Proliferation assay (MTS, 72 h), DND-41; assay type: cell-based, human
From the text: (§1) Human cancer cells used in this manuscript, namely Capan-1, HCT-116, NCI-H460, LN-229, HL-60, K-562, and Z-138, were acquired from the American Type Culture Collection (ATCC, Manassas, VA, USA), while the DND-41 cell line was purchased from the Deutsche Sammlung von Mikroorganismen und Zellkulturen (DSMZ Leibniz-Institut, Braunschweig, Germany). Culture media were purchased from Gibco Life Technologies, Merelbeke, Belgium, and supplemented with 10% fetal bovine serum (HyClone, Cytiva, Marlborough, MA, USA). Vincristine and docetaxel, which were used as the reference inhibitors, were purchased from Selleckchem (Munich, Germany). Stock solutions were prepared in DMSO.
(§2) Adherent cell lines LN-229, HCT-116, and NCI-H460 and Capan-1 cells were seeded at a density between 500 and 1500 cells per well, in 384-well tissue culture plates (Greiner, Kremsmünster, Austria). After overnight incubation, the cells were treated with seven different concentrations of the test compounds, ranging from 100 to 0.006 µM.
(§3) Suspension cell lines HL-60, K-562, Z-138, and DND-41 were seeded at densities ranging from 2500 to 5500 cells per well in 384-well culture plates containing the test compounds at the same concentration points. The cells were incubated for 72 h with the compounds and were then analyzed using the CellTiter 96® AQueous One Solution Cell Proliferation Assay (MTS) reagent (Promega, Madison, WI, USA) according to the manufacturer’s instructions. […] The compounds were tested in two independent experiments.

NCI-H460, lung carcinoma = experiment: Proliferation assay (MTS, 72 h), NCI-H460; assay type: cell-based, human
From the text: as §1, §2, §3

[2] = system: Capan-1, pancreatic adenocarcinoma; experiment: Proliferation assay (MTS, 72 h), Capan-1; assay type: cell-based, human
From the text: as §1, §2, §3

[3] = system: HCT-116, colorectal carcinoma; experiment: Proliferation assay (MTS, 72 h), HCT-116; assay type: cell-based, human
From the text: as §1, §2, §3

[4] = system: K-562, chronic myeloid leukemia; experiment: Proliferation assay (MTS, 72 h), K-562; assay type: cell-based, human
From the text: as §1, §2, §3

[5] = system: Z-138, non-Hodgkin lymphoma; experiment: Proliferation assay (MTS, 72 h), Z-138; assay type: cell-based, human
From the text: as §1, §2, §3

[6] = system: HL-60, acute myeloid leukemia; experiment: Proliferation assay (MTS, 72 h), HL-60; assay type: cell-based, human
From the text: as §1, §2, §3

LN-229, glioblastoma = experiment: Proliferation assay (MTS, 72 h), LN-229; assay type: cell-based, human
From the text: as §1, §2, §3

in vitro [7] = conditions: human
[8] = system: herpes simplex virus-1 (HSV-1 KOS); experiment: Antiviral CPE reduction assay, HSV-1 KOS in HEL 299; assay type: cell-based; conditions: Human alphaherpesvirus 1; HEL 299 cells, 100 CCID50, MTS
[9] = system: human coronavirus HCoV-OC43; experiment: microbe, parasite or virus in culture; assay type: cell-based; conditions: Betacoronavirus 1, OC43; HEL 299 cells, 100 CCID50, MTS; read-out: Antiviral Activity (EC50/μM) HCoV OC43 HEL 299
[10] = system: influenza A/H1N1 (A/Ned/378/05); experiment: Antiviral CPE reduction assay, influenza A/H1N1 in MDCK; assay type: cell-based; conditions: Influenza A virus, MDCK cells, 100 CCID50, MTS
[11] = system: human coronavirus HCoV-NL63; experiment: Antiviral CPE reduction assay, HCoV-NL63 in Huh-7; assay type: cell-based; conditions: Huh-7 cells, 100 CCID50, MTS
[12] = system: yellow fever virus (YFV 17D); experiment: microbe, parasite or virus in culture; assay type: cell-based; conditions: Huh-7, read-out: Antiviral Activity (EC50/μM) YFV 17D Huh-7
[13] = system: influenza B (B/Ned/537/05); experiment: Antiviral CPE reduction assay, influenza B in MDCK; assay type: cell-based; conditions: Influenza B virus; MDCK cells, 100 CCID50, MTS
[14] = system: human coronavirus HCoV-229E; experiment: organism not typed; assay type: cell-based; conditions: HEL 299 cells, 100 CCID50, MTS; read-out: Antiviral Activity (EC50/μM) HCoV 229E HEL 299
[15] = system: respiratory syncytial virus A (Long); experiment: Antiviral CPE reduction assay, RSV A in HEL 299; assay type: cell-based; conditions: human respiratory syncytial virus; HEL 299 cells, 100 CCID50, MTS
[16] = system: influenza A/H3N2 (A/HK/7/87); experiment: Antiviral CPE reduction assay, influenza A/H3N2 in MDCK; assay type: cell-based; conditions: Influenza A virus, MDCK cells, 100 CCID50, MTS
in vitro [17] = conditions: dog
in vitro [18] = conditions: human; remark: listed apart in the source
Zika virus (Mr776) = experiment: Antiviral CPE reduction assay, Zika virus in Huh-7; assay type: cell-based; conditions: Huh-7 cells, 100 CCID50, MTS
sindbis virus = experiment: Antiviral CPE reduction assay, Sindbis virus in Huh-7; assay type: cell-based; conditions: Huh-7 cells, 100 CCID50, MTS

Compound	melting point [°C]	IC50 ([1]; Homo sapiens, DND41) [µM]	IC50 (NCI-H460, lung carcinoma; Homo sapiens, NCI-H460) [µM]	IC50 ([2]; Homo sapiens, CAPAN-1) [µM]	IC50 ([3]; Homo sapiens, HCT-116) [µM]	IC50 ([4]; Homo sapiens, K562) [µM]	IC50 ([5]; Homo sapiens, Z-138) [µM]	IC50 ([6]; Homo sapiens, HL-60) [µM]	IC50 (LN-229, glioblastoma; Homo sapiens, LN-229) [µM]	also measured
2-amino-1-phenylbenzimidazole [Compound 19]	–	–	–	–	–	–	–	–	–	IC50 [1]: 98.3 µM; IC50 (NCI-H460, lung carcinoma): > 100 µM; IC50 [2]: > 100 µM; IC50 [3]: > 100 µM; IC50 [4]: > 100 µM; IC50 [5]: > 100 µM; IC50 [6]: > 100 µM; IC50 (LN-229, glioblastoma): > 100 µM
2-amino-6-cyano-1-isobutylbenzimidazole [Compound 21]	–	–	–	–	–	–	–	–	–	IC50 [1]: > 100 µM; IC50 (NCI-H460, lung carcinoma): 69.2 µM; IC50 [2]: > 100 µM; IC50 [3]: > 100 µM; IC50 [4]: > 100 µM; IC50 [5]: > 100 µM; IC50 [6]: > 100 µM; IC50 (LN-229, glioblastoma): > 100 µM
O=c1[nH]c(=O)n([C@H]2C[C@H](O)[C@@H](CO)O2)cc1/C=C/Br [BVDU, brivudine, reference compound]	–	–	–	–	–	–	–	–	–	CC50 (in vitro [7]): > 100 µM; EC50 [8]: 0.05 µM
CC(C)Cn1c(N)nc2ccccc21 [Compound 17, 2-amino-1-isobutylbenzimidazole]	–	–	–	–	–	–	–	–	–	EC50 [9]: > 100 µM; EC50 [10]: > 100 µM; EC50 [11]: > 100 µM; EC50 [12]: > 100 µM; EC50 [13]: > 100 µM; EC50 [14]: 78.9 µM; EC50 [15]: > 100 µM; EC50 [16]: > 100 µM; CC50 (in vitro [17]): > 100 µM; CC50 (in vitro [7]): > 100 µM; CC50 (in vitro [18]): > 100 µM; EC50 (Zika virus (Mr776)): > 100 µM; EC50 [8]: > 100 µM; EC50 (sindbis virus): > 100 µM
CCCCCCn1c(N)nc2ccccc21 [Compound 20, 2-amino-1-hexylbenzimidazole]	245 to 250	–	–	–	–	–	–	–	–	–
CCCCCCn1c(N)nc2ccc(C#N)cc21 [Compound 24, 2-Amino-6-cyano-1-hexylbenzimidazole]	215 to 220	–	–	–	–	–	–	–	–	–
CC(C)Cn1c(/N=C/c2ccc(N(C)C)cc2)nc2ccccc21 [Compound 28, (E)-4-(((1-Isobutyl-1H-benzo[d]imidazol-2-yl)imino)methyl)-N,N-dimethylaniline]	277 to 279	> 100	> 100	> 100	15.2	> 100	> 100	> 100	> 100	–
CCN(CC)c1ccc(/C=N/c2nc3ccccc3n2CC(C)C)c(O)c1 [Compound 30, (E)-5-(Diethylamino)-2-(((1-isobutyl-1H-benzo[d]imidazol-2-yl)imino)methyl)phenol]	–	> 100	> 100	> 100	> 100	> 100	> 100	70.4	> 100	–
CN(C)c1ccc(/C=N/c2nc3ccccc3n2C)cc1 [Compound 33, (E)-N,N-Dimethyl-4-(((1-methyl-1H-benzo[d]imidazol-2-yl)imino)methyl)aniline]	186 to 188	> 100	> 100	> 100	> 100	> 100	> 100	> 100	> 100	–
CCN(CC)c1ccc(/C=N/c2nc3ccccc3n2C)c(O)c1 [Compound 35, (E)-5-(Diethylamino)-2-(((1-methyl-1H-benzo[d]imidazol-2-yl)imino)methyl)phenol]	–	> 100	> 100	> 100	> 100	> 100	> 100	> 100	> 100	–
CN(C)c1ccc(/C=N/c2nc3ccc(C#N)cc3n2-c2ccccc2)cc1 [Compound 39, (E)-2-((4-(Dimethylamino)benzylidene)amino)-1-phenyl-1H-benzo[d]imidazole-6-carbonitrile]	247 to 251	> 100	> 100	> 100	> 100	> 100	> 100	> 100	> 100	–
CCCCCCn1c(/N=C/c2ccc(N(C)C)cc2)nc2ccc(C#N)cc21 [Compound 43, (E)-2-((4-(Dimethylamino)benzylidene)amino)-1-hexyl-1H-benzo[d]imidazole-6-carbonitrile]	165 to 170	> 100	91.6	> 100	> 100	> 100	> 100	33.5	> 100	–
CCCCCCn1c(/N=C/c2ccc(N(CC)CC)cc2O)nc2ccccc21 [Compound 44, (E)-5-(Diethylamino)-2-(((1-hexyl-1H-benzo[d]imidazol-2-yl)imino)methyl)phenol]	201 to 204	> 100	> 100	> 100	> 100	> 100	> 100	83.9	> 100	–
CCCCCCn1c(/N=C/c2ccc(N(CC)CC)cc2O)nc2ccc(C#N)cc21 [Compound 45, (E)-2-((4-(Diethylamino)-2-hydroxybenzylidene)amino)-1-hexyl-1H-benzo[d]imidazole-6-carbonitrile]	–	> 100	> 100	> 100	> 100	> 100	> 100	> 100	> 100	–
COc1cc([C@@H]2c3cc4c(cc3[C@@H](O[C@@H]3O[C@@H]5CO[C@@H](C)O[C@H]5[C@H](O)[C@H]3O)[C@H]3COC(=O)[C@H]23)OCO4)cc(OC)c1O [ETP, etoposide, reference compound]	–	2.8	3.65	0.43	1.45	1.77	0.85	0.42	2.4	–
COC(=O)Nc1nc2ccc(C(=O)c3cccs3)cc2[nH]1 [NZO, nocodazole, reference compound]	–	0.47	0.25	0.1	0.13	0.07	0.31	0.1	0.29	–
CCC(CC)COC(=O)[C@H](C)N[P@](=O)(OC[C@H]1O[C@@](C#N)(c2ccc3c(N)ncnn23)[C@H](O)[C@@H]1O)Oc1ccccc1 [Remdesivir, remdesivir, reference compound]	–	–	–	–	–	–	–	–	–	EC50 [9]: 0.06 µM; EC50 [11]: 0.03 µM; EC50 [12]: 6.2 µM; EC50 [14]: 0.06 µM; EC50 [15]: 0.03 µM; CC50 (in vitro [7]): > 10 µM; CC50 (in vitro [18]): > 10 µM; EC50 (Zika virus (Mr776)): 0.7 µM; EC50 (sindbis virus): > 10 µM
NC(=O)c1ncn([C@@H]2O[C@H](CO)[C@@H](O)[C@H]2O)n1 [Ribavirin, ribavirin, reference compound]	–	–	–	–	–	–	–	–	–	EC50 [10]: 10.5 µM; EC50 [11]: > 250 µM; EC50 [12]: > 250 µM; EC50 [13]: 2.8 µM; EC50 [14]: 82.6 µM; EC50 [15]: 10.8 µM; EC50 [16]: 4 µM; CC50 (in vitro [17]): 67 µM; EC50 (Zika virus (Mr776)): > 250 µM; EC50 (sindbis virus): 148 µM
CC(N)C12CC3CC(CC(C3)C1)C2 (centres unmarked) [Rimantadine, rimantadine, reference compound]	–	–	–	–	–	–	–	–	–	EC50 [10]: 5 µM; EC50 [13]: > 100 µM; EC50 [16]: 0.05 µM; CC50 (in vitro [17]): > 100 µM
CC(=O)N[C@H]1[C@H]([C@H](O)[C@H](O)CO)OC(C(=O)O)=C[C@@H]1N=C(N)N [Zanamivir, zanamivir, reference compound]	–	–	–	–	–	–	–	–	–	EC50 [10]: 0.1 µM; EC50 [13]: 0.05 µM; EC50 [16]: 16.8 µM; CC50 (in vitro [17]): > 100 µM
